Columns and labels:
MDA-MB-453 [1] = assay: drug sensitivity score (DSS), single agent (DSS (weighted AUC score)); higher = more sensitive (stronger viability decrease); extreme values may be limits of the assay; conditions: BLU9931 0 nM; 72 h
In short: (§1)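 Each 384-well plate held compounds from the FIMM Oncology set, predispensed in singlicate at five 10-fold dilutions spanning a 10,000-fold range, and each well then received 2000 MDA-MB-453 cells in medium with or without an FGFR4 inhibitor at 100 nM final. Plates stayed at 37 °C, 5% CO2 for 72 h, after which cellular ATP was measured with CellTiterGlo 2.0. Readings were converted per plate into percent viability against control wells, and the drug sensitivity score was taken as a weighted area under a four-parameter logistic fit.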

MDA-MB-453 [2] = assay: drug sensitivity score (DSS), in combination with BLU9931 (DSS (weighted AUC score)); higher = more sensitive (stronger viability decrease); extreme values may be limits of the assay; conditions: BLU9931 100 nM; 72 h
In short: as §1

## CO[C@H]1C[C@@H]2CC[C@@H](C)[C@@](O)(O2)C(=O)C(=O)N2CCCC[C@H]2C(=O)O[C@H]([C@H](C)C[C@@H]2CC[C@@H](OC(=O)C(C)(CO)CO)[C@H](OC)C2)CC(=O)[C@H](C)/C=C(\C)[C@@H](O)[C@@H](OC)C(=O)[C@H](C)C[C@H](C)/C=C/C=C/C=C/1C [Temsirolimus]
MDA-MB-453 [1]
  drug sensitivity score: 10.3
MDA-MB-453 [2]
  drug sensitivity score: 14.8

## CC(C)(C#N)c1cc(Cn2cncn2)cc(C(C)(C)C#N)c1 [Anastrozole]
MDA-MB-453 [1]
  drug sensitivity score: 0
MDA-MB-453 [2]
  drug sensitivity score: 0

## CCS(=O)(=O)N1CC(CC#N)(n2cc(-c3ncnc4[nH]ccc34)cn2)C1 [Baricitinib]
MDA-MB-453 [1]
  drug sensitivity score: 0
MDA-MB-453 [2]
  drug sensitivity score: 0

## CCC/C=C/C=C/C(=O)O[C@H]1/C(=C/C(=O)OC)C[C@H]2C[C@H]([C@@H](C)O)OC(=O)C[C@H](O)C[C@@H]3C[C@H](OC(C)=O)C(C)(C)[C@](O)(C[C@@H]4C/C(=C/C(=O)OC)C[C@H](/C=C/C(C)(C)[C@]1(O)O2)O4)O3 [Bryostatin 1]
MDA-MB-453 [1]
  drug sensitivity score: 7.9
MDA-MB-453 [2]
  drug sensitivity score: 2.3

## Cc1c(C(=O)Nc2ccc(N3C[C@@H](C)O[C@@H](C)C3)nc2)cccc1-c1ccc(OC(F)(F)F)cc1 [Sonidegib]
MDA-MB-453 [1]
  drug sensitivity score: 5.8
MDA-MB-453 [2]
  drug sensitivity score: 1.4

## CN(C)C(=N)NC(=N)N [Metformin]
MDA-MB-453 [1]
  drug sensitivity score: 0
MDA-MB-453 [2]
  drug sensitivity score: 0

## CN1CCN(c2ccc3nc(-c4c(N)c5c(F)cccc5[nH]c4=O)[nH]c3c2)CC1 [Dovitinib]
MDA-MB-453 [1]
  drug sensitivity score: 0
MDA-MB-453 [2]
  drug sensitivity score: 0

## CCCc1cc(C)[nH]c(=O)c1CNC(=O)c1cc(-c2ccnc(N3CCN(C)CC3)c2)cc2c1cnn2C(C)C [GSK343]
MDA-MB-453 [1]
  drug sensitivity score: 0
MDA-MB-453 [2]
  drug sensitivity score: 0

## Cc1nc(-c2cn3c(n2)-c2ccc(-c4cnn(C(C)(C)C(N)=O)c4)cc2OCC3)n(C(C)C)n1 [Taselisib]
MDA-MB-453 [1]
  drug sensitivity score: 17.9
MDA-MB-453 [2]
  drug sensitivity score: 19.3

## O=C(c1ccc(F)c(F)c1Nc1ccc(I)cc1F)N1CC(O)([C@@H]2CCCCN2)C1 [Cobimetinib]
MDA-MB-453 [1]
  drug sensitivity score: 1.7
MDA-MB-453 [2]
  drug sensitivity score: 0.3

## Cc1cn(-c2cc(NC(=O)c3ccc(C)c(Nc4nccc(-c5cccnc5)n4)c3)cc(C(F)(F)F)c2)cn1 [Nilotinib]
MDA-MB-453 [1]
  drug sensitivity score: 1.7
MDA-MB-453 [2]
  drug sensitivity score: 1.5

## COc1nc(N)nc2c1ncn2[C@@H]1O[C@H](CO)[C@@H](O)[C@@H]1O [Nelarabine]
MDA-MB-453 [1]
  drug sensitivity score: 1.3
MDA-MB-453 [2]
  drug sensitivity score: 1.5

## Cc1ccc(NC(=O)c2ccc(CN3CCN(C)CC3)cc2)cc1Nc1nccc(-c2cccnc2)n1 [Imatinib]
MDA-MB-453 [1]
  drug sensitivity score: 0.9
MDA-MB-453 [2]
  drug sensitivity score: 0.1

## CC1=C(/C=C/C(C)=C/C=C/C(C)=C/C(=O)O)C(C)(C)CCC1 [Tretinoin]
MDA-MB-453 [1]
  drug sensitivity score: 0
MDA-MB-453 [2]
  drug sensitivity score: 0

## FC(F)(F)c1ccc(/C=C/c2nc(COc3ccc(CCCCn4ccnn4)cc3)co2)cc1 [Mubritinib]
MDA-MB-453 [1]
  drug sensitivity score: 7.8
MDA-MB-453 [2]
  drug sensitivity score: 4

## COc1cc2/c(=N/c3ccc(Br)cc3F)nc[nH]c2cc1OCC1CCN(C)CC1 [Vandetanib]
MDA-MB-453 [1]
  drug sensitivity score: 0
MDA-MB-453 [2]
  drug sensitivity score: 0

## CC/C(=C(\c1ccc(O)cc1)c1ccc(OCCN(C)C)cc1)c1ccccc1 [4-hydroxytamoxifen]
MDA-MB-453 [1]
  drug sensitivity score: 4.8
MDA-MB-453 [2]
  drug sensitivity score: 4.5

## CCC(C)n1ncn(-c2ccc(N3CCN(c4ccc(OCC5COC(Cn6cncn6)(c6ccc(Cl)cc6Cl)O5)cc4)CC3)cc2)c1=O (stereo unspecified) [Itraconazole]
MDA-MB-453 [1]
  drug sensitivity score: 2.9
MDA-MB-453 [2]
  drug sensitivity score: 1.5

## Cc1cc(Nc2nc(N[C@@H](C)c3ncc(F)cn3)ncc2Cl)[nH]n1 [AZD1480]
MDA-MB-453 [1]
  drug sensitivity score: 0.3
MDA-MB-453 [2]
  drug sensitivity score: 0

## O=C1NC(=O)[C@@H](c2cn3c4c(cccc24)CCC3)[C@@H]1c1c[nH]c2ccccc12 [Tivantinib]
MDA-MB-453 [1]
  drug sensitivity score: 4.4
MDA-MB-453 [2]
  drug sensitivity score: 2

## N#Cc1ccc(C(c2ccc(C#N)cc2)n2cncn2)cc1 [Letrozole]
MDA-MB-453 [1]
  drug sensitivity score: 0
MDA-MB-453 [2]
  drug sensitivity score: 0

## C=CC(=O)Nc1cc2c(Nc3ccc(F)c(Cl)c3)ncnc2cc1OCCCN1CCOCC1 [Canertinib]
MDA-MB-453 [1]
  drug sensitivity score: 15.5
MDA-MB-453 [2]
  drug sensitivity score: 17.8

## Cc1c2oc3c(C)ccc(C(=O)N[C@@H]4C(=O)N[C@H](C(C)C)C(=O)N5CCC[C@H]5C(=O)N(C)CC(=O)N(C)[C@@H](C(C)C)C(=O)O[C@@H]4C)c3nc-2c(C(=O)N[C@@H]2C(=O)N[C@H](C(C)C)C(=O)N3CCC[C@H]3C(=O)N(C)CC(=O)N(C)[C@@H](C(C)C)C(=O)O[C@@H]2C)c(N)c1=O [Dactinomycin]
MDA-MB-453 [1]
  drug sensitivity score: 21
MDA-MB-453 [2]
  drug sensitivity score: 22

## CC(C)[C@@H](CS(=O)(=O)C(C)C)N1C(=O)[C@@](C)(CC(=O)O)C[C@H](c2cccc(Cl)c2)[C@H]1c1ccc(Cl)cc1 [AMG-232]
MDA-MB-453 [1]
  drug sensitivity score: 0.2
MDA-MB-453 [2]
  drug sensitivity score: 0

## CC(C)n1nc(-c2ccc3oc(N)nc3c2)c2c(N)ncnc21 [Sapanisertib]
MDA-MB-453 [1]
  drug sensitivity score: 17.1
MDA-MB-453 [2]
  drug sensitivity score: 17.9

## O=C(Nc1cccc(NC(=O)c2cccc(O)c2O)c1)c1cccc(O)c1O [MST-312]
MDA-MB-453 [1]
  drug sensitivity score: 10
MDA-MB-453 [2]
  drug sensitivity score: 9.7

## Nc1ncn([C@@H]2O[C@H](CO)[C@@H](O)[C@H]2O)c(=O)n1 [Azacitidine]
MDA-MB-453 [1]
  drug sensitivity score: 0.5
MDA-MB-453 [2]
  drug sensitivity score: 0.4

## C=C1C[C@@H]2CC[C@@]34C[C@H]5O[C@H]6[C@@H](O3)[C@H]3O[C@H](CC[C@@H]3O[C@H]6[C@H]5O4)CC(=O)C[C@@H]3[C@@H](OC)[C@@H](C[C@H](O)CN)O[C@H]3C[C@H]3O[C@@H](CC[C@@H]1O2)C[C@@H](C)C3=C [Eribulin]
MDA-MB-453 [1]
  drug sensitivity score: 15.5
MDA-MB-453 [2]
  drug sensitivity score: 13.4

## Cc1cn(-c2cc(NC(=O)c3ccc(C)c(Nc4nccc(-c5cnccn5)n4)c3)cc(C(F)(F)F)c2)cn1 [Radotinib]
MDA-MB-453 [1]
  drug sensitivity score: 0
MDA-MB-453 [2]
  drug sensitivity score: 2.4

## CCCCc1nc2cc(/C=C/C(=O)NO)ccc2n1CCN(CC)CC [Pracinostat]
MDA-MB-453 [1]
  drug sensitivity score: 22.3
MDA-MB-453 [2]
  drug sensitivity score: 19.8

## CC1(COc2ccc3c(c2)ncn3-c2ccc3cccc(N4CCC(N)CC4)c3n2)COC1 [Crenolanib]
MDA-MB-453 [1]
  drug sensitivity score: 7.5
MDA-MB-453 [2]
  drug sensitivity score: 6.5

## Nc1ccn([C@@H]2O[C@H](CO)[C@@H](O)C2(F)F)c(=O)n1 [Gemcitabine]
MDA-MB-453 [1]
  drug sensitivity score: 6.9
MDA-MB-453 [2]
  drug sensitivity score: 6

## Cc1cc(Nc2cc(CN3CCOCC3)c3nc(C)c(Cc4ccc(Cl)cc4F)n3n2)n[nH]1 [Gandotinib]
MDA-MB-453 [1]
  drug sensitivity score: 5
MDA-MB-453 [2]
  drug sensitivity score: 1.2

## N#CC(c1ccnc(OCc2ccc(CN3CCOCC3)cc2)n1)c1nc2ccccc2s1 (stereo unspecified) [Bentamapimod]
MDA-MB-453 [1]
  drug sensitivity score: 2.6
MDA-MB-453 [2]
  drug sensitivity score: 1.3

## Nc1nc(OCc2cc(Br)cs2)c2[nH]cnc2n1 [Lomeguatrib]
MDA-MB-453 [1]
  drug sensitivity score: 0
MDA-MB-453 [2]
  drug sensitivity score: 0

## COc1cccc2c1C(=O)c1c(O)c3c(c(O)c1C2=O)C[C@@](O)(C(=O)CO)C[C@@H]3O[C@H]1C[C@H](N)[C@@H](O)[C@H](C)O1 [Epirubicin]
MDA-MB-453 [1]
  drug sensitivity score: 7.3
MDA-MB-453 [2]
  drug sensitivity score: 5.9

## CC[C@@H]1[C@H](F)C(=O)N[C@@H]1COc1nccc2cc(C(N)=O)c(OC)cc12
MDA-MB-453 [1]
  drug sensitivity score: 2.9
MDA-MB-453 [2]
  drug sensitivity score: 0.4

## CC[C@]1(O)C[C@H]2CN(CCc3c([nH]c4ccccc34)[C@@](C(=O)OC)(c3cc4c(cc3OC)N(C=O)[C@H]3[C@@](O)(C(=O)OC)[C@H](OC(C)=O)[C@]5(CC)C=CCN6CC[C@]43[C@@H]65)C2)C1 [Vincristine]
MDA-MB-453 [1]
  drug sensitivity score: 14.1
MDA-MB-453 [2]
  drug sensitivity score: 8.1
